Four compounds from ChEMBL document CHEMBL4219227, “Polyprenylated polycyclic acylphloroglucinol: Angiogenesis inhibitor from Garcinia multiflora” (Bioorg Med Chem Lett, 2018) can be followed below.

The source made the active and inactive calls. No cut-off for these calls is given here. A value given as a limit tells only on which side of the number the result lay.

Common to all, as to assay type: functional
Test [1] is filed under the species Homo sapiens. Kind of test: Growth inhibition of human CD34-positive EPC at 10 uM after 48 hrs by SRB assay. In general terms: In SRB staining, fixed cells bind dye roughly in proportion to their protein.
The species entered for test [2] is Homo sapiens. Briefly: Antiangiogenic activity in human CD34-positive EPC assessed as suppression of cell reorganization at 20 uM after 24 hrs by phase contrast microscopic method.
The species entered for test [3] is Homo sapiens. Kind of test: Antiangiogenic activity in human CD34-positive EPC assessed as suppression of capillary-like structure formation at 20 uM after 24 hrs by phase contrast microscopic method.
Test [4] can be described thus: Antiangiogenic activity in human CD34-positive EPC assessed as suppression of capillary-like structure formation after 24 hrs by phase contrast microscopic method.
Another test deals with SK-HEP1. Briefly: Growth inhibition of human SKHEP1 cells after 48 hrs by SRB assay. As to conditions: SK-HEP1, 48 h.
A further test deals with PC-3. Kind of test: Growth inhibition of human PC3 cells after 48 hrs by SRB assay. The conditions noted are these: PC-3, 48 h.

On to `C=C(C)[C@@H](CC=C(C)C)C[C@@]12C[C@@H](CC=C(C)C)C(C)(C)[C@]3(C=CC(C)(C)OC3=C(C(=O)c3ccccc3)C1=O)C2=O` [GARCIMULTIFLORONE B], for which, in the test listed under Homo sapiens [1], the “growth inhibition (GI)” value was “Active”. Further, the outcome in the test listed under Homo sapiens [2] and in the test listed under Homo sapiens [3] was Active. The IC50 (commonly the concentration at which inhibition is half-maximal) in test [4] was found to be 15.7 µM. Also, the GI50 (in general, the concentration that inhibits growth by half) is above 30 µM with SK-HEP1 and 18.2 µM in the test on PC-3.

Take `CC(=O)O[C@H]1C(=O)[C@@]2(C)[C@H]([C@H](OC(=O)c3ccccc3)[C@]3(O)C[C@H](OC(=O)[C@H](O)[C@@H](NC(=O)c4ccccc4)c4ccccc4)C(C)=C1C3(C)C)[C@]1(OC(C)=O)CO[C@@H]1C[C@@H]2O` [PACLITAXEL]: the GI50 with SK-HEP1 came to 0.011 µM; with PC-3 it was 0.013 µM.

`C=C(C)[C@@H](CC=C(C)C)C[C@]12C[C@@H](CC=C(C)C)C(C)(C)[C@](CC=C(C)C)(C1=O)C(O)=C(C(=O)c1ccccc1)C2=O`: in the test listed under Homo sapiens [1], the “growth inhibition (GI)” value was “Active”. Further, the outcome in the test listed under Homo sapiens [2] and in the test listed under Homo sapiens [3] was Active. Also, in test [4], the IC50 was found to be 14.3 µM. In addition, the GI50 in the test on SK-HEP1 came out at 4.3 µM; with PC-3, 6.6 µM.

Turning to `CC(C)=CCC1=C2OC(C)(C)[C@@H](CC=C(C)C)C[C@@]23C[C@@H](CC=C(C)C)C(C)(C)[C@@](C(=O)c2ccccc2)(C1=O)C3=O` [GARCIMULTIFLORONE A], the “growth inhibition (GI)” value in the test listed under Homo sapiens [1] was “Active”. Besides, the outcome in the test listed under Homo sapiens [2] and in the test listed under Homo sapiens [3] was Active. Moreover, the IC50 in test [4] worked out at 16.5 µM. Moreover, the values for the GI50 in the test with SK-HEP1 and in the test with PC-3 were above 30 µM and 24.8 µM, respectively.
